Results published in patent publication US8318950B2, “N-acyl amino acid derivatives, a method for the preparation thereof, a pharmaceutical composition and use thereof as anti-allergic, anti-inflammatory and hypolipidemic agents” (Otkrytoe Aktsionernoe Obschestvo-Otechestvennye Lekarstva, priority 2005, dated 2012).

What was measured:
[1] = tested on: Sephadex A-25 induced pneumonitis in Wistar rats; experiment: Sephadex-induced (6-day) pneumonitis in rats; assay type: in vivo, rat
Procedure: The Model of Sephadex-Induced (6-Day) Pneumonitis in Rats
Male Wistar rats weighing 270-300 g were used in the tests.
Inflammation in the lungs was induced by a single inhalation of sephadex A-25 (hydrophilic powder with particle sizes from 20 to 80 μm) at dose 5 mg/kg using a dosing device which is a laboratory analog of the inhaler “Cyclohaler” (the Scientific-Research Institute for Pulmonology of the RF).
Sephadex A-25 at dose 5 mg per 1 kg body weight was administered to rats under ester anesthesia using an original dosing device for inhalation administering dry powders. Following administration of Sephadex A-25, Wistar rats rapidly recovered form anesthesia, and no peculiarities in their behavior and respiration character were noted. The substances in the form of a dry powder were administered by inhalation at dose 500 μg/kg 1 hour post Sephadex administration, then for 5 days in succession once daily at one and the same morning hours. The control was represented by two groups: a group of intact animals, and a group of rats administered once with Sephadex by inhalation.
The results of therapeutic action of pharmacological substances on pneumonitis development were assessed using morphological and morphometric parameters (volume density and alveolitis) 6 days post aerosol Sephadex administration.
Histological examinations of the lungs stained by hematoxyline and eosine.
4-5 μm thick histological lung slices were prepared wherein neutrophil number was calculated as well as volume density of alveolitis and emphysema was assessed using the Avtandilov's mesh [Avtandilov G. G., Vvedeniye v kolichestvennuyu pathologicheskuyu morphologiyu.//Moscow. “Meditsina” publishers. 1980. p. 203]. Morphometric examination of pulmonary lymphoid tissue was also carried out. To this end, micro preparations of the lungs were fixed according to the method of Beinenstock et al [Bienenstock J., Johnson N., Perey D. Y. E. Bronchial lymphoid tissue 1. Morphologic characteristics//Lab. Invest. 1973. v. 28 p. 693-698.] […] Volume density of alveolitis and emphysema was determined using the point calculation method.
Broncho-alveolar wash-off was obtained in rats and guinea pigs under hexenal anesthesia by double washing the lungs through the trachea with 10 ml normal saline. Viability of cells was determined in the test with tryptane blue. Absolute number of cells in 1 ml (cytosis) was determined in the broncho-alveolar wash-off liquid (BAW) using the Goryaev's chamber. In the smears of the BAW liquid precipitate obtained using centrifugation at 200 g for 10 minutes and then stained according to Romanovskcy-Gimza, endopulmonary cytogram was calculated (in percent) [Avtsyn A. P., Lukomskij G. I., Romanova L. K. et al. Endopul'monal'naya cytogramma.//Sov. […]

[2] = tested on: guinea pig blood basophils; experiment: In vitro ovalbumin (OA)-induced blood basophil degranulation of immunized guinea pig; assay type: cell-based
Procedure: Leukocytes from guinea pig blood were isolated according to the Freemel's method [Immunologicheskiye Metody under edition of G. Frimel/Moscow., “Meditsina” publishers, 1987, p. 222 in the inventor's modification].
Guinea pigs of both sexes weighing from 600 to 800 g were used to conduct the test. The animals were once immunized with a mixture of 10 μg ovalbumin and 100 mg aluminum hydroxide per one animal according to Andersson [Anderson P. Antigen-induced bronchial anaphylaxis in actively sensitized guinea-pigs.//Allergy. 1980. Vol. 35. P. 63-71].
Under ester anesthesia, 15 ml blood were drawn from guinea pig heart. Double precipitation of cells using EDTA and a citrate-containing precipitating liquid was used to isolate basophils in the leukocyte suspension.
Blood was mixed with 5% EDTA.Na2 2H2O (“Sigma”) solution at 9:1 ratio and in 30 minutes it was subjected to mild centrifugation (for 12 minutes at 80 g). Supernatant was collected and centrifuged for 15 minutes at 500 g.
To the remaining cells, a citrate-containing precipitating liquid (3) was added at proportion 3:10 (it was thermostated at 37° C. for 30 minutes). A supernatant fraction enriched by leukocytes was centrifuged for 7 minutes at 100 g. To leukocyte precipitate, 0.85% NaCl solution was added and cellular concentration was brought to 30×10^3 μl.
Protocol of the in vitro basophil degranulation test [Spravochnil po klinicheskim laboratomym metodam issledovaniya (A reference book on clinical-laboratory examination methods)/Edited by E. A. Cost/Moscow, “Meditsina” publishers, 1975, p. 130].
For the test, a centrifuge tube (3 tubes per each sample) was filled with 300 μl cellular suspension, then salt solution of a tested compound (or a salt solution in the control of spontaneous and maximum degranulation) was added and pre-incubated at 37° C. for 15 minutes, then into each tube 300 μl 1% OA solution was added (in the control of spontaneous degranulation a salt solution in the same amount was added) and once more pre-incubated at 37° C. for 10 minutes. Functional leukocyte concentration was 10^4/μl. Samples (100 μl) were taken off from each tube into separate tubes to assess a complete basophil degranulation, and to the remained cells, a cooled salt solution was added (5 ml into each tube) to arrest degranulation reaction, then the tubes were centrifuged for 7 min at 100 g, and from precipitate, preparations for microscopy were prepared. The preparations were fixed and stained according to the method of Seder et al. [Seder R. A. et al. Mouse splenic and bone marrow cell populations that express high—affinity Fcε receptors and produce interleukin-4 are highly enriched in basophils.//Proc. Natl. Acad. USA, 1991, V. 88, P. 2835-2839].
In order to detect a specific basophil granulation, the dye 0.5% alcyanic blue (pH 1.0) was used, nuclei were additionally stained with safranin (0.1% solution in 1% acetic acid). The preparations were used to assess a total degranulation inhibition.
A total degranulation inhibition (DI) (%) was calculated according to the formula: […]
max—% of degranulated basophils at the maximum degranulation (OA)
spontaneous—% of degranulated basophils in spontaneous degranulation (control)
experimental—% of degranulated basophils following exposure to the tested compound.
Assessment of a Complete Basophil Degranulation
Samples selected following basophil degranulation test (100 μl each) were poured into tubes with the dye (0.5% alcyane blue, pH 1.0) at ratio 1:1. Staining was carried out at room temperature for not less than 50 min. Stained basophils were calculated using the Fooks-Rosenthal chamber. Inhibition of a complete basophil degranulation (ICD) was calculated according to the formula: ICD(%)=1−[(Mm(c)−Mm(exper.)]/Mm(c)−Mm(OA)]×100, wherein
M m (c)—mean (by three samples) basophil number in the spontaneous basophil degranulation test
M±m (OA)—mean (by three samples) basophil number in the maximum antigen-induced basophil degranulation test; […]

## O=C(O)CCCC(=O)N[C@@H](Cc1c[nH]cn1)C(=O)O [Compound IV, N^α-glutaryl-L-histidine]
[1]; 500 μg/kg by inhalation
  emphysema (histological examination of the lungs): not practically detected
  infiltration of interalveolar septa with neutrophils: not noted
[1]; compared to the model group, 500 μg/kg by inhalation
  prevalence of alveolitis (histological examination of the lungs): significantly lower
[1]; dry powder by inhalation 500 μg/kg
  Absolute number of Macrophags in 1 μl BAW: 152.4 ± 18.5 cells in 1 μl BAW
[2]; 10^−3 M
  Number of completely degranulated basophils: 2.6 ± 2.6 %
[2]; 10^−4 M
  Number of completely degranulated basophils: 2.9 ± 1.6 %
[2]; 10^−5 M
  Number of completely degranulated basophils: 0%
[2]; 10^−6 M
  Number of completely degranulated basophils: 3.9 ± 0.6%
[2]; 10^−7 M
  Number of completely degranulated basophils: 9.1 ± 0.8%
[2]; Cavia porcellus, 10^−3 M, read-out: Complete degranulation inhibition (CDI)
  inhibition at 1000 µM: 99.2 ± 11.2%
[2]; Cavia porcellus, 10^−4 M, read-out: Complete degranulation inhibition (CDI)
  inhibition at 100 µM: 99.5 ± 12%
[2]; Cavia porcellus, 10^−5 M, read-out: Complete degranulation inhibition (CDI)
  inhibition at 10 µM: 114 ± 2.7%
[2]; Cavia porcellus, 10^−6 M, read-out: Complete degranulation inhibition (CDI)
  inhibition at 1 µM: 90 ± 1.8%
[2]; Cavia porcellus, 10^−7 M, read-out: Complete degranulation inhibition (CDI)
  inhibition at 0.1 µM: 76.7 ± 1.5%
[2]; calcium free medium
  degranulation inhibition in the test of complete OA-induced degranulation: ~100%
